# Laboratory results reported in patent publication US8017786B2, “Substituted β-phenyl-α-hydroxy-propanoic acid, synthesis method and use thereof” (Northwest University, priority 2006, dated 2011).
# System: anesthetized rats
# Test: Blood pressure and left ventricular function of anesthetized rats
# Format: in vivo, rat
# Parameters: contractive pressure, change ratio: unit not given here
# Experimental: All data were input into PowerLab/8Sp data acquisition and processing system via RM-6000 multi-channel polygraph, and recorded, analyzed and processed by PowerLab/8Sp.
# The abdomen was opened 1.5 cm below xiphoid bone to isolate duodenum, a small incision was formed on the duodenum away from blood vessels by ophthalmic scissors, a catheter was inserted and the incision was fixed by suture for administration. After the end of operation and a further waiting period of 30 min, normal data were recorded once the indexes to be monitored were stable.
# Test drugs were duodenally administered via the catheter, and the indexes were monitored 5, 15, 30, 60, 90 and 120 min after the administration. The change ratios of the indexes were calculated in accordance with the following formula, and were used for statistic analysis among groups.
# [1] = 4.5 mg/kg duodenal, 120 min after administration
# [2] = 4.5 mg/kg duodenal, before administration
# [3] = 9 mg/kg duodenal, 5 min after administration
# [4] = 9 mg/kg duodenal, 15 min after administration
# [5] = 9 mg/kg duodenal, 30 min after administration
# [6] = 9 mg/kg duodenal, 60 min after administration
structure (smiles),measurement,setting,value
"CC1(C)C2CCC1(C)C(OC(=O)C(O)Cc1ccc(O)c(O)c1)C2 (stereo not drawn) [bornyl salvianate ester, bornyl β-(3,4-dihydroxylphenyl)-α-hydroxylpropionate ester]","mean arterial pressure, change ratio","4.5 mg/kg duodenal, 90 min after administration",5.62 ± 15.30
same,change-rate of left intraventricular pressure MAX,[1],5512.7 ± 1250.1 mmHg/s
same,"change-rate of left intraventricular pressure MAX, change ratio",[1],3.6 ± 20.4
same,"change-rate of left intraventricular pressure, -MAX",[1],−3995.2 ± 837.9 mm/Hg/s
same,"change-rate of left intraventricular pressure, -MAX, change ratio",[1],−5.6 ± 14.3
same,contractive pressure,[1],128.62 ± 28.30 mmHg
same,"contractive pressure, change ratio",[1],−0.49 ± 12.28
same,diastolic pressure,[1],72.46 ± 20.46 mmHg
same,"diastolic pressure, change ratio",[1],4.39 ± 16.80
same,heart rate,[1],360.36 ± 51.93 beat/min
same,"heart rate, change ratio",[1],9.40 ± 6.30
same,left intraventricular pressure,[1],129.15 ± 18.53 mmHg
same,"left intraventricular pressure, change ratio",[1],0.79 ± 7.76
same,mean arterial pressure,[1],91.18 ± 22.76 mmHg
same,"mean arterial pressure, change ratio",[1],2.06 ± 14.37
same,change-rate of left intraventricular pressure MAX,[2],5380.2 ± 913.7 mmHg/s
same,"change-rate of left intraventricular pressure, -MAX",[2],−4246.1 ± 669.3 mm/Hg/s
same,contractive pressure,[2],129.06 ± 22.13 mmHg
same,diastolic pressure,[2],68.47 ± 11.97 mmHg
same,heart rate,[2],329.43 ± 43.77 beat/min
same,left intraventricular pressure,[2],128.68 ± 20.18 mmHg
same,mean arterial pressure,[2],88.67 ± 14.74 mmHg
same,effect on the heart rate (in words),"4.5 mg/kg, 9 mg/kg and 18 mg/kg doses",no significant effects
same,−dp/dt (in words),"9 mg/kg and 18 mg/kg, significant at 60 and 120 min",exhibited a decrease tendency
same,change-rate of left intraventricular pressure MAX,[3],5388.9 ± 1187.0 mmHg/s
same,"change-rate of left intraventricular pressure MAX, change ratio",[3],−0.7 ± 6.7
same,"change-rate of left intraventricular pressure, -MAX",[3],−3908.5 ± 1013.0 mm/Hg/s
same,"change-rate of left intraventricular pressure, -MAX, change ratio",[3],0.0 ± 11.2
same,contractive pressure,[3],131.10 ± 24.38 mmHg
same,"contractive pressure, change ratio",[3],−1.14 ± 6.68
same,diastolic pressure,[3],68.02 ± 18.77 mmHg
same,"diastolic pressure, change ratio",[3],−2.47 ± 10.80
same,heart rate,[3],374.04 ± 47.60 beat/min
same,"heart rate, change ratio",[3],0.28 ± 7.83
same,left intraventricular pressure,[3],128.87 ± 25.63 mmHg
same,"left intraventricular pressure, change ratio",[3],−0.03 ± 8.26
same,mean arterial pressure,[3],89.05 ± 20.26 mmHg
same,"mean arterial pressure, change ratio",[3],−1.79 ± 8.69
same,change-rate of left intraventricular pressure MAX,[4],5321.6 ± 1133.0 mmHg/s
same,"change-rate of left intraventricular pressure MAX, change ratio",[4],−1.6 ± 7.4
same,"change-rate of left intraventricular pressure, -MAX",[4],−3792.8 ± 979.5 mm/Hg/s
same,"change-rate of left intraventricular pressure, -MAX, change ratio",[4],−2.9 ± 10.2
same,contractive pressure,[4],127.85 ± 23.92 mmHg
same,"contractive pressure, change ratio",[4],−3.57 ± 7.14
same,diastolic pressure,[4],66.18 ± 19.00 mmHg
same,"diastolic pressure, change ratio",[4],−5.33 ± 9.64
same,heart rate,[4],374.93 ± 47.51 beat/min
same,"heart rate, change ratio",[4],0.48 ± 7.36
same,left intraventricular pressure,[4],127.06 ± 25.57 mmHg
same,"left intraventricular pressure, change ratio",[4],−1.37 ± 9.10
same,mean arterial pressure,[4],86.74 ± 20.25 mmHg
same,"mean arterial pressure, change ratio",[4],−4.42 ± 8.30
same,change-rate of left intraventricular pressure MAX,[5],5179.1 ± 1270.9 mmHg/s
same,"change-rate of left intraventricular pressure MAX, change ratio",[5],−5.0 ± 7.8
same,"change-rate of left intraventricular pressure, -MAX",[5],−3696.8 ± 997.3 mm/Hg/s
same,"change-rate of left intraventricular pressure, -MAX, change ratio",[5],−5.5 ± 10.8
same,contractive pressure,[5],122.58 ± 23.46 mmHg
same,"contractive pressure, change ratio",[5],−7.38 ± 8.66
same,diastolic pressure,[5],62.90 ± 17.46 mmHg
same,"diastolic pressure, change ratio",[5],−9.50 ± 10.75
same,heart rate,[5],361.94 ± 43.56 beat/min
same,"heart rate, change ratio",[5],−3.00 ± 5.83
same,left intraventricular pressure,[5],123.59 ± 25.06 mmHg
same,"left intraventricular pressure, change ratio",[5],−4.07 ± 8.57
same,mean arterial pressure,[5],82.79 ± 18.98 mmHg
same,"mean arterial pressure, change ratio",[5],−8.42 ± 9.56
same,change-rate of left intraventricular pressure MAX,[6],4966.9 ± 1297.4 mmHg/s
same,"change-rate of left intraventricular pressure MAX, change ratio",[6],−9.2 ± 10.0
same,"change-rate of left intraventricular pressure, -MAX",[6],−3569.5 ± 857.8 mm/Hg/s
same,"change-rate of left intraventricular pressure, -MAX, change ratio",[6],−8.3 ± 10.2
same,contractive pressure,[6],115.46 ± 23.90 mmHg
